Legend:
[1] = biological target: BCL6 (Homo sapiens, UniProt P41182); conditions: well-characterized Boehringer Ingelheim inhibitor; read-out: in vitro IC50; cited from earlier work
[2] = biological target: GSK3beta (Homo sapiens, UniProt P49841); assay: UV-B induced denaturation of cell lysates, immunoblot of soluble fraction, GSK3beta; format: binding; conditions: lysates exposed to UV-B for 4 min; FIG. 29B
GSK3beta, sequence (P49841 whole entry, species assumed): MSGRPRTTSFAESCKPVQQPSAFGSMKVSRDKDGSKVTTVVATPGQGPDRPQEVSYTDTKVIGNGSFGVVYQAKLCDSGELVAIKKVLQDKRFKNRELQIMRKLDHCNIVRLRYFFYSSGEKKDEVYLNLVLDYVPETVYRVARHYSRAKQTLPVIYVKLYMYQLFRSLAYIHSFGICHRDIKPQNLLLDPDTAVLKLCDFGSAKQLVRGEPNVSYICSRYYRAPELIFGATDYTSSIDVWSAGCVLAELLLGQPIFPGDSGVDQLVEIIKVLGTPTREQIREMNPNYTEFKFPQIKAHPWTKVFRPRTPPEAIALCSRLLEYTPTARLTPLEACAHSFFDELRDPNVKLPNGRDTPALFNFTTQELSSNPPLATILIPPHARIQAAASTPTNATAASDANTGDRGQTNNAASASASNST

| stabilization of GSK3beta protein from UV-B induced denaturation [2] | Structure (SMILES) | IC50 [1] [nM] |
| --- | --- | --- |
| – | CNC(=O)COc1cc2cc(Nc3nc(N4CCC(C(=O)N(C)C)CC4)ncc3Cl)cc(OC)c2n(C)c1=O [BI-3812] | ~3 |
| stabilization of the GSK3beta protein | Cc1c[nH]c(-c2cnc(NCCNc3ccc(C#N)cn3)nc2-c2ccc(Cl)cc2Cl)n1 [CHIR99021] | – |

Source: US12510537B2, “High throughput drug screening methods” (NERD BIO LLC, priority 2020, dated 2025)
